For the assay, the target named is T1, TLR7 (Homo sapiens, UniProt Q9NYK1).
T1 construct: host or cells: HEK-Blue cells (human HEK) co-expressing TLR7 and an NF-kB/AP1-inducible SEAP reporter
T1 sequence (Q9NYK1 27-1049): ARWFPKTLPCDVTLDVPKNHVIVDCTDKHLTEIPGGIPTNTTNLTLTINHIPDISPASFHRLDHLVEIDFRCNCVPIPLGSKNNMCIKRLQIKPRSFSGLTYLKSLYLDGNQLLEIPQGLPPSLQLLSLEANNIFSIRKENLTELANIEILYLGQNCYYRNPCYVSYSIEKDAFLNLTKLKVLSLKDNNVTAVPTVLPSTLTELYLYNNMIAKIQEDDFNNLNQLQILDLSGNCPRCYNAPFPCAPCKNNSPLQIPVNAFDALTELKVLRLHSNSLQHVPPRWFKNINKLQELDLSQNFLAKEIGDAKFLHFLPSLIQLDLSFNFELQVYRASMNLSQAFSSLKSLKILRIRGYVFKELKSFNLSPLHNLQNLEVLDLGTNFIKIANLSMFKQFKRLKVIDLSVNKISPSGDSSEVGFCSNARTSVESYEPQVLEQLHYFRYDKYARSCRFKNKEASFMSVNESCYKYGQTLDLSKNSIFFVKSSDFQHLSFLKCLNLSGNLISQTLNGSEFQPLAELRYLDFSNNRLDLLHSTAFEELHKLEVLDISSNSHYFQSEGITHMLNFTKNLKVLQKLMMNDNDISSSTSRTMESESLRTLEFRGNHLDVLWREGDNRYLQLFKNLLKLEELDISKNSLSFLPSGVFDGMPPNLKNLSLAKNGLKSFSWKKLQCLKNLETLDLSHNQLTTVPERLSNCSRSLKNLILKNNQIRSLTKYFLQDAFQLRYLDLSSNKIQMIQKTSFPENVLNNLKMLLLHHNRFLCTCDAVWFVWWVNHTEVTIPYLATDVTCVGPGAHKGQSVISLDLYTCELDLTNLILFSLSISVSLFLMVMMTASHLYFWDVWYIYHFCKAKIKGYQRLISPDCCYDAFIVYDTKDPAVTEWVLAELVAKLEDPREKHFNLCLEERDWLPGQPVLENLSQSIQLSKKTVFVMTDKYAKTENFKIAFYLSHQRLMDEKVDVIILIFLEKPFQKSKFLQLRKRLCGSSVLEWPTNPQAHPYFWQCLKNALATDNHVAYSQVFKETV
Nature of the assay: In vitro human TLR7 binding reporter assay (HEK-Blue, NF-kB/AP1-inducible SEAP). To be noted: activity range symbols. Format: cell-based. On the procedure:
In Vitro Human TLR7 and TLR8 Binding Reporter Assays
Logarithmically-growing human HEK-Blue cells co-expressing a TLR7 or TLR8 gene and a NF-kB/AP1-inducible SEAP (secreted embryonic alkaline phosphatase; Invivogen, San Diego, CA) reporter gene are added to individual wells of a 384-well plate (15,000 cells per 20 μL per well) and maintained for 24 h at 37° C., 5% CO2. Test compounds or DMSO are distributed to separate wells the next day using acoustic liquid handling technology (100 nL per well) and cells are subsequently incubated for 18 h at 37° C., 5% CO2. Cellular SEAP production is measured using an Envision plate reader instrument thirty minutes after adding freshly-made Quanti-Blue reagent (prepared by following manufacturer instructions; Invivogen, San Diego, CA) to the HEK-Blue TLR Nf-kB-SEAP cell reactions. All EC50 values (half-maximal effective concentration) are determined using proprietary data analysis software.
With `Nc1nc2cc(-n3cccn3)ccc2c2[nH]c(CN3CC(c4ccccc4)CC3=O)nc12` (centres unmarked) [Compound 103], the EC50 was > 100 µM.

Take `CCN(Cc1nc2c(N)nc3cc(C)ccc3c2[nH]1)C(C)=O` [Compound 104]: the EC50 is > 100 µM. On to `CCNCc1nc2c(N)nc3cc(-c4cc[nH]n4)ccc3c2n1C` [Compound 106, 2-((Ethylamino)methyl)-1-methyl-7-(1H-pyrazol-3-yl)-1H-imidazo[4,5-c]quinolin-4-amine], for which the EC50 was > 100 µM. Then `CCN(Cc1nc2c(N)nc3cc(-n4cccn4)ccc3c2[nH]1)S(C)(=O)=O` [Compound 108, N-((4-Amino-7-(1H-pyrazol-1-yl)-1H-imidazo[4,5-c]quinolin-2-yl)methyl)-N-ethylmethanesulfonamide], with > 100 µM; and `CCN(Cc1nc2c(N)nc3cc(-c4cc[nH]n4)ccc3c2[nH]1)C(=O)OC(C)(C)C` [Compound 109, tert-Butyl ((4-amino-7-(1H-pyrazol-3-yl)-1H-imidazo[4,5-c]quinolin-2-yl)methyl)(ethyl)carbamate], with > 100 µM. Then `CCN(Cc1nc2c(N)nc3cc(-c4cc[nH]n4)ccc3c2[nH]1)C(=O)N(C)C` [Compound 110, 1-((4-Amino-7-(1H-pyrazol-3-yl)-1H-imidazo[4,5-c]quinolin-2-yl)methyl)-1-ethyl-3,3-dimethylurea], with > 100 µM; and `Nc1nc2cc(C(F)(F)F)ccc2c2[nH]c(CN3CCCC3=O)nc12` [Compound 163], with 20 to 100 µM. As to `CCN(Cc1nc2c(N)nc3ccccc3c2n1CCCC(=O)OC)C(C)=O` [Compound 164], the EC50 is > 100 µM. For `CCN(Cc1nc2c(N)nc3cc(-c4ccccc4)ccc3c2[nH]1)C(C)=O` [Compound 165, N-[(4-amino-7-phenyl-1H-imidazo[4,5-c]quinolin-2-yl)methyl]-N-ethylacetamide], the EC50 was > 100 µM. Turning to `CCN(Cc1nc2c(N)nc3cc(-c4cccnc4)ccc3c2[nH]1)C(C)=O` [Compound 166, N-[(4-amino-7-pyridin-3-yl-1H-imidazo[4,5-c]quinolin-2-yl)methyl]-N-ethylacetamide], the EC50 is > 100 µM.

`CCN(Cc1nc2c(N)nc3cc(-c4ccncc4)ccc3c2[nH]1)C(C)=O` [Compound 167, N-[(4-amino-7-pyridin-4-yl-1H-imidazo[4,5-c]quinolin-2-yl)methyl]-N-ethylacetamide]: the EC50 is > 100 µM. `CCN(Cc1nc2c(N)nc3cc(-c4cc(C)nn4C)ccc3c2[nH]1)C(C)=O` [Compound 168, N-[[4-amino-7-(2,5-dimethylpyrazol-3-yl)-1H-imidazo[4,5-c]quinolin-2-yl]methyl]-N-ethylacetamide]: the EC50 was > 100 µM. For `CCCn1cc(-c2ccc3c(c2)nc(N)c2nc(CN(CC)C(C)=O)[nH]c23)cn1` [Compound 169, N-[[4-amino-7-(1-propylpyrazol-4-yl)-1H-imidazo[4,5-c]quinolin-2-yl]methyl]-N-ethylacetamide] the value was > 100 µM. For `CCN(Cc1nc2c(N)nc3cc(C(C)C)ccc3c2[nH]1)C(C)=O` [Compound 170, N-[(4-amino-7-propan-2-yl-1H-imidazo[4,5-c]quinolin-2-yl)methyl]-N-ethylacetamide] the value was 20 to 100 µM; for `CCc1ccc2c(c1)nc(N)c1nc(CN(CC)C(C)=O)[nH]c12` [Compound 171, N-[(4-amino-7-ethyl-1H-imidazo[4,5-c]quinolin-2-yl)methyl]-N-ethylacetamide], 1 to 20 µM.

Consider `CCCc1ccc2c(c1)nc(N)c1nc(CN(CC)C(C)=O)[nH]c12` [Compound 172, N-[(4-amino-7-propyl-1H-imidazo[4,5-c]quinolin-2-yl)methyl]-N-ethylacetamide], for which the concentration giving a half-maximal response (EC50) is 1 to 20 µM. For `CCN(Cc1nc2c(N)nc3cc(C4CCCC4)ccc3c2[nH]1)C(C)=O` [Compound 173, N-[(4-amino-7-cyclopentyl-1H-imidazo[4,5-c]quinolin-2-yl)methyl]-N-ethylacetamide] the value was > 100 µM.

For the origin of these results see US12351580B2, “NLRP3 modulators” (Innate Tumor Immunity, Inc., priority 2017, dated 2025).
